Where a SMILES comes first, the peptide text is derived from it.
B1: recombinant tissue factor: recombinant tissue factor based PT reagent, named in b17 as comparison for sensitivity (protein, UniProt P13726 33-295, looked up)
Tissue factor: SGTTNTVAAYNLTWKSTNFKTILEWEPKPVNQVYTVQISTKSGDWKSKCFYTTDTECDLTDEIVKDVKQTYLARVFSYPAGNVESTGSAGEPLYENSPEFTPYLETNLGQPTIQSFEQVGTKVNVTVEDERTLVRRNNTFLSLRDVFGKDLIYTLYYWKSSSSGKKTAKTNTNEFLIDVDKGENYCFSVQAVIPSRTVNRKSTDSPVECMGQEKGEFREIFYIIGAVVFVVIILVIILAISLHKCRKAGVGQSWKENSPLNVS
modifications: PT reagent
notes: recombinant tissue factor based PT reagent, named in b17 as comparison for sensitivity

Tests used:
[1] = test system: Level I (normal control) and Level III (abnormal control) control plasma; assay: traditional prothrombin time test method using a Fibrometer; conditions: amino acid stabilizer compound formulated into PT reagent (summary of Examples 1 to 13)
Experimental: The concentration of the dissolved phospholipids was 12.76 mM. […] Additional bovine serum albumin was added to a concentration of 4.8 mg/ml. […] The dialyzed lipidated tissue factor, was then drained from the dialysis bag. […] The formulated material was frozen at −70° C., and then thawed. The thawed formulated material was incubated at 25 and 37° C. for 4 weeks, The reagent was taken out from the incubation at weekly intervals and subjected to coagulation assay by traditional prothrombin time test method using a Fibrometer. The control plasma samples used for the assay were Level I (normal control) and Level III (abnormal control) of Ortho Diagnostics Corporation. […] The Level III abnormal control plasma contains a reduced amount of coagulation factors representing the plasma of patients.

[2] = test system: Control Level I or Level III plasma samples; assay: clotting assay of air-dried reagent in cuvets for Protime instrument; format: biochemical; conditions: Example 11 lipidated tissue factor in 14 mM Hepes, 4% sorbitol, 1% β-alanine, with 1% polymeric carbohydrate or none
Experimental: The formulated material was air-dried at 20° C. and 5% relative humidity in cuvets for Protime instrument (a product of International Technidyne Corporation, Edison, N.J.). The produced cuvets with reagent were incubated at 25, 37 and 45° C. for stability studies. At given time intervals, the cuvets were taken out of the incubators and assayed for their clotting activities. Freshly withdrawn blood, Control Level I or Level III plasma samples were added to the cuvets with the dried reagent for assay. Calcium chloride, 8.3 mM, was added to the control plasmas and loaded on the cuvet immediately for assay. In this assay system, reconstitution of the dried reagent is done with plasma or blood, without using water, which is different from Fibrometer assay system. Thence, the kinetics involved in these two systems are different, as well as the clotting times. Whole blood contains a considerable amount of red blood cells and other blood components and its clotting activity is different from that of plasma. For comparison, the clotting time with freshly withdrawn whole blood at day zero was 22.8 seconds.
As shown in the results, γ-Cyclodextrin is a useful homogeneous polymeric carbohydrate to adjust the sensitivity of the synthetic PT reagent.

[3] = test system: Level III and Level I plasma; conditions: prior art comparison; cited from earlier work

| Molecule | Level III/I ratio test results [1] | other results |
| --- | --- | --- |
| N=C(N)NCCC[C@H](N)C(=O)O [Arginine] | Unsatis- | – |
| N[C@@H](CC(=O)O)C(=O)O [Aspartic acid] | Unsatis- | – |
| NCCC(=O)O [Beta alanine] | Satisfac- | – |
| NCCCCC(=O)O [Delta aminovaleric acid] | Satisfac- | – |
| NCCCC(=O)O [Gamma aminobutyric acid] | Satisfac- | – |
| NCC(=O)NCC(=O)O [Glycylglycine] (H-Gly-Gly-OH) | Unsatis- | – |
| OC[C@H]1O[C@@H]2O[C@H]3[C@H](O)[C@@H](O)[C@@H](O[C@H]4[C@H](O)[C@@H](O)[C@@H](O[C@H]5[C@H](O)[C@@H](O)[C@@H](O[C@H]6[C@H](O)[C@@H](O)[C@@H](O[C@H]7[C@H](O)[C@@H](O)[C@@H](O[C@H]8[C@H](O)[C@@H](O)[C@@H](O[C@H]9[C@H](O)[C@@H](O)[C@@H](O[C@H]1[C@H](O)[C@H]2O)O[C@@H]9CO)O[C@@H]8CO)O[C@@H]7CO)O[C@@H]6CO)O[C@@H]5CO)O[C@@H]4CO)O[C@@H]3CO [γ-Cyclodextrin] | – | Clotting Times, Level I [2]: 17.6 s; Clotting Times, Level III [2]: 81.8 s; III/I Ratio [2]: 4.7 |
| NCCCCCC(=O)O [ε-aminocaproic acid] | Unsatis- | – |
| B1 | – | Level III/I sensitivity [3]: 4.0 |

— patent publication US6733985B1, “Preparation of stable liquid and dried synthetic prothrombin time reagents” (International Technidyne Corporation, priority 1999, dated 2004)
